Measured values taken from patent EP0158513A2, “Antiviral compounds” (THE WELLCOME FOUNDATION LIMITED, priority 1984, dated 1985).
Converted amounts (≈) assume the structure as drawn.

Experiments:
[1] = physchem; assay type: physicochemical; conditions: 25 °C, water
From the text: In UK Patent Specification 2130204 we describe certain purine derivatives which are characterised by the presence of a hydrogen atom in the 6- position of the purine nucleus, and which can be readily converted in vivo by the action of enzymes of the molybdo-flavo-protein type (especially xanthine oxidase/dehydrogenase or aldehyde oxidase) into the corresponding 6-hydroxy purine derivatives having antiviral activity. […] This improved water-solubility enables 6-deoxyacyclovir to be used in a greater variety of aqueous pharmaceutical formulations which require some solubilisation of the drug.

[2] = biological target: T1, xanthine oxidase from bovine milk (Bos taurus, UniProt P80457); experiment: oxidation by xanthine oxidase (enzyme studies); assay type: biochemical; conditions: compared with the 9-unsubstituted purine (2-aminopurine)
T1 construct: xanthine oxidase from bovine milk; from tissue; host or cells: bovine milk
T1 sequence (P80457 whole entry): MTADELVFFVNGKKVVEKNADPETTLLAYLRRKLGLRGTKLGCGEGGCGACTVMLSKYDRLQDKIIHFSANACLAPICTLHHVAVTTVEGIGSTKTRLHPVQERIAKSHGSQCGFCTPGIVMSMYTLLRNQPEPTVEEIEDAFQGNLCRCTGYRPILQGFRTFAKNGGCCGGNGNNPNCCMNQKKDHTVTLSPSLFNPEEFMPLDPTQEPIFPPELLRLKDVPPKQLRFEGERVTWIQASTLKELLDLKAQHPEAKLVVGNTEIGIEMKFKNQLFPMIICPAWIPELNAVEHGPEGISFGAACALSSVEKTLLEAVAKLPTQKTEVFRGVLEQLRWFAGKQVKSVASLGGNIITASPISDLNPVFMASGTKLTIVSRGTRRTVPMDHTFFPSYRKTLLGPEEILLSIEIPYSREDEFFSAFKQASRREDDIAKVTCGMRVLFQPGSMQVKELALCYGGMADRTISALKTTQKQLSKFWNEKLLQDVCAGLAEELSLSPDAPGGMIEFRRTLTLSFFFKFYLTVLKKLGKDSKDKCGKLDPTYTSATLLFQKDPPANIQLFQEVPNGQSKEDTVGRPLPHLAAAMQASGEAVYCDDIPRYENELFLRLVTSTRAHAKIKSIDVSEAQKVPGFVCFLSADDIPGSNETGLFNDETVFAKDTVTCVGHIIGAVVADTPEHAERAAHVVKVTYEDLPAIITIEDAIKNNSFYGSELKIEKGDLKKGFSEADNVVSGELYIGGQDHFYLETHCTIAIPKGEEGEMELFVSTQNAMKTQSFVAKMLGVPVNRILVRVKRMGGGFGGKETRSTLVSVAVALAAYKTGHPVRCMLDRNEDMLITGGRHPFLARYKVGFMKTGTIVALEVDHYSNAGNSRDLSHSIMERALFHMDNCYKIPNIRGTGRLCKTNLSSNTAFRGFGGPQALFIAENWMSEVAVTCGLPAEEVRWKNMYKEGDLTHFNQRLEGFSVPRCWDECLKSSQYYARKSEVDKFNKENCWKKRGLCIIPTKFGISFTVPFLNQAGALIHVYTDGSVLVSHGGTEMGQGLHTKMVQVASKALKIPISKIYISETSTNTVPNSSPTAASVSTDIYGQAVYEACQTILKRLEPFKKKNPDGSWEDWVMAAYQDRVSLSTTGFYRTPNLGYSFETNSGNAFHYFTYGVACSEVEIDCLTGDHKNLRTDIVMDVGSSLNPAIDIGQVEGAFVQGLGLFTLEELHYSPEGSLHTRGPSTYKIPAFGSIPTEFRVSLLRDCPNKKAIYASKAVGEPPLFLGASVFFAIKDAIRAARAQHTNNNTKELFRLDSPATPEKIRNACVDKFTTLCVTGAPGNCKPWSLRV
From the text: The discovery that the 6-hydrogen purines of formula (IA) referred to above can be readily converted into their corresponding 6-hydroxy analogues was surprising since in previous studies with xanthine oxidase from bovine milk (H.Lettre et al (1967) Biochem.Pharmacol., 16, 1747-1755; T.A. Krenitsky et al (1972) Arch. Biophys., 150, 585-599), it was shown that 9- substitution obliterates or greatly diminishes the rate at which a variety of purines are oxidised.

solubility [1]	SMILES	rate of oxidation by the enzyme [2]
50 mg/mL (≈ 239 mM)	Nc1ncc2ncn(COCCO)c2n1 [6-deoxyacyclovir, 2-amino-9-(2-hydroxyethoxymethyl)purine]	at a faster rate than the 9-unsubstituted purine
1.23 mg/mL (≈ 5.46 mM)	Nc1nc2c(ncn2COCCO)c(=O)[nH]1 [acyclovir, 9-(2-hydroxyethoxymethyl)guanine]	
